Read-outs that look alike come from different tables or passages of the source.

What all share (assay): biochemical
What all share (format): biochemical

For experiment [1], the target named is 363 human kinases (including Aurora A/B/C) (Homo sapiens, UniProt P11362). Conditions: for remaining activity at 0.5 µM / remaining activity at 0.1 µM: read-out: % Enzyme Activity (relative to DMSO controls).
From the text: (§1) However, the Aurora A/B selectivity ratios derived from our in vitro and in vivo data can be compared to prioritize inhibitors.
Experiment [2] deals with T1, 363 human kinases (including Aurora A/B/C) (Homo sapiens, UniProt P29323).
T1 sequence (P29323 19-1055): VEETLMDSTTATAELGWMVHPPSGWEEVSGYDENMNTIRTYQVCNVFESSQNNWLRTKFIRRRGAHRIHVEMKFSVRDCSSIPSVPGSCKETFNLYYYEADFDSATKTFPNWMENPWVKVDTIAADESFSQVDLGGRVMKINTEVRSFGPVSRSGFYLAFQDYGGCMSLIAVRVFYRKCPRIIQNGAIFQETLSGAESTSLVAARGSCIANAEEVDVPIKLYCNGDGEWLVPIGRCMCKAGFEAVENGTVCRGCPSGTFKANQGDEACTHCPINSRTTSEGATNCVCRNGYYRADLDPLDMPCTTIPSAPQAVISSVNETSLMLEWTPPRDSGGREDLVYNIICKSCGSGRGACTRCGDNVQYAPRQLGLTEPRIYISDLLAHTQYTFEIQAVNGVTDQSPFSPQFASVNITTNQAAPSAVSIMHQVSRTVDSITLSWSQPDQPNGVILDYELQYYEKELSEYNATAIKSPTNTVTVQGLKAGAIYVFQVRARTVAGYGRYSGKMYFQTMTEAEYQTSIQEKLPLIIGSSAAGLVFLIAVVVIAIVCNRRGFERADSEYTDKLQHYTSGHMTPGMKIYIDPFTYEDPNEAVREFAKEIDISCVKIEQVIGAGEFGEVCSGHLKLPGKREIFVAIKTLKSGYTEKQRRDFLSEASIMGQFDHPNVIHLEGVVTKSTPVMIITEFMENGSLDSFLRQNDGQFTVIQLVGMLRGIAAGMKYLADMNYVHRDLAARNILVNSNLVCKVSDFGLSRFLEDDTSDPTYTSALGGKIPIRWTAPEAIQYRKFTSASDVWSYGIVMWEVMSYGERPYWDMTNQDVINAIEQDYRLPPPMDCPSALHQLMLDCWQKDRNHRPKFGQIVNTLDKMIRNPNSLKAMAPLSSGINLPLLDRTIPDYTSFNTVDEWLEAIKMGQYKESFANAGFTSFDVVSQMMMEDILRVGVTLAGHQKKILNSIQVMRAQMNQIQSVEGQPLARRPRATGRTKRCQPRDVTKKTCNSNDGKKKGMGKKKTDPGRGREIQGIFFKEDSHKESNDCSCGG
Conditions: EPHB2, [ATP] 30 µM; for remaining activity at 0.5 µM / remaining activity at 0.1 µM: read-out: % Enzyme Activity (relative to DMSO controls); for remaining activity at 0.1 µM: 100 nM.
From the text: as §1

Experiment [3] addresses 363 human kinases (including Aurora A/B/C) (Homo sapiens, UniProt P23443). Conditions: p70S6K/RPS6KB1; for remaining activity at 0.5 µM / remaining activity at 0.1 µM: read-out: % Enzyme Activity (relative to DMSO controls); for remaining activity at 0.1 µM: 100 nM.
From the text: as §1
Experiment [4] has as its target 363 human kinases (including Aurora A/B/C) (Homo sapiens, UniProt P53667). Conditions: LIMK1; for remaining activity at 0.5 µM / remaining activity at 0.1 µM: read-out: % Enzyme Activity (relative to DMSO controls); for remaining activity at 0.1 µM: 100 nM.
From the text: as §1
Experiment [5] has as its target T2, 363 human kinases (including Aurora A/B/C) (Homo sapiens, UniProt O14757).
T2 sequence (O14757 1-476): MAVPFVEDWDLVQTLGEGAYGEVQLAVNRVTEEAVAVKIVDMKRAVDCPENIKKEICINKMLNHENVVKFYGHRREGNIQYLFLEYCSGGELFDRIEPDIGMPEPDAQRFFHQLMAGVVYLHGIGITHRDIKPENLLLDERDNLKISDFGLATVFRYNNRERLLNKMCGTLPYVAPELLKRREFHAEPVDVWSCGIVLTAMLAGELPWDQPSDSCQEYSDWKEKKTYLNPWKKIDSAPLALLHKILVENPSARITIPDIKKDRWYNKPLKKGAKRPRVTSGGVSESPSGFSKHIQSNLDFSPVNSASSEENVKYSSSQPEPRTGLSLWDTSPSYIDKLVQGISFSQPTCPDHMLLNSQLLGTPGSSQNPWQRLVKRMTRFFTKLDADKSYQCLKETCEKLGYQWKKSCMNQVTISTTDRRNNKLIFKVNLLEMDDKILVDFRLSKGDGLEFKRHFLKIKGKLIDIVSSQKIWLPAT
The settings on record: CHK1, [ATP] 20 µM; for remaining activity at 0.5 µM / remaining activity at 0.1 µM: read-out: % Enzyme Activity (relative to DMSO controls); for remaining activity at 0.1 µM: 100 nM.
From the text: as §1

The target in experiment [6] is T3, 363 human kinases (including Aurora A/B/C) (Homo sapiens, UniProt P35626).
T3 sequence (P35626 1-688): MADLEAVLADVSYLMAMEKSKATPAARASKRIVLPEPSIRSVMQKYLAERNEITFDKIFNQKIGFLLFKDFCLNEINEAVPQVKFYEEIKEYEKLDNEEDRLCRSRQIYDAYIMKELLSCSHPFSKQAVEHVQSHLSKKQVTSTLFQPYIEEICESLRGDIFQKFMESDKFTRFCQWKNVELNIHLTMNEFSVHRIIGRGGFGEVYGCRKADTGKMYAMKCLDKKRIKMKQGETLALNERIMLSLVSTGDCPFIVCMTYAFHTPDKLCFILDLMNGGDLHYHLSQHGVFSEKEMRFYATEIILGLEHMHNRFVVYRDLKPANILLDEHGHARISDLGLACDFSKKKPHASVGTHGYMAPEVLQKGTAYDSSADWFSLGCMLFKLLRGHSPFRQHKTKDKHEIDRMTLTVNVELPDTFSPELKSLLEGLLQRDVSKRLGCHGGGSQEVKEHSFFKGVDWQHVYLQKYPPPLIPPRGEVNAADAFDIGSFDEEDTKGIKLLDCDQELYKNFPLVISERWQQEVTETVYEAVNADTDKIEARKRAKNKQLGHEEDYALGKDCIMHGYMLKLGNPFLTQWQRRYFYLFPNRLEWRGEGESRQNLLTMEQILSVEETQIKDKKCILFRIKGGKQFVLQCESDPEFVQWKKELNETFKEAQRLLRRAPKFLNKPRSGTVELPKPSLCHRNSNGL
The settings on record: GRK3; for remaining activity at 0.5 µM / remaining activity at 0.1 µM: read-out: % Enzyme Activity (relative to DMSO controls); for remaining activity at 0.1 µM: 100 nM.
From the text: as §1

The target in experiment [7] is 363 human kinases (including Aurora A/B/C) (Homo sapiens, UniProt Q8N4C8). Conditions: MINK/MINK1; for remaining activity at 0.5 µM / remaining activity at 0.1 µM: read-out: % Enzyme Activity (relative to DMSO controls); for remaining activity at 0.1 µM: 100 nM.
From the text: as §1
The target in experiment [8] is 363 human kinases (including Aurora A/B/C) (Homo sapiens, UniProt P57059). Conditions: SIK1; for remaining activity at 0.5 µM / remaining activity at 0.1 µM: read-out: % Enzyme Activity (relative to DMSO controls); for remaining activity at 0.1 µM: 100 nM.
Sequence of 363 human kinases (including Aurora A/B/C) (Homo sapiens, UniProt P57059) (P57059 whole entry): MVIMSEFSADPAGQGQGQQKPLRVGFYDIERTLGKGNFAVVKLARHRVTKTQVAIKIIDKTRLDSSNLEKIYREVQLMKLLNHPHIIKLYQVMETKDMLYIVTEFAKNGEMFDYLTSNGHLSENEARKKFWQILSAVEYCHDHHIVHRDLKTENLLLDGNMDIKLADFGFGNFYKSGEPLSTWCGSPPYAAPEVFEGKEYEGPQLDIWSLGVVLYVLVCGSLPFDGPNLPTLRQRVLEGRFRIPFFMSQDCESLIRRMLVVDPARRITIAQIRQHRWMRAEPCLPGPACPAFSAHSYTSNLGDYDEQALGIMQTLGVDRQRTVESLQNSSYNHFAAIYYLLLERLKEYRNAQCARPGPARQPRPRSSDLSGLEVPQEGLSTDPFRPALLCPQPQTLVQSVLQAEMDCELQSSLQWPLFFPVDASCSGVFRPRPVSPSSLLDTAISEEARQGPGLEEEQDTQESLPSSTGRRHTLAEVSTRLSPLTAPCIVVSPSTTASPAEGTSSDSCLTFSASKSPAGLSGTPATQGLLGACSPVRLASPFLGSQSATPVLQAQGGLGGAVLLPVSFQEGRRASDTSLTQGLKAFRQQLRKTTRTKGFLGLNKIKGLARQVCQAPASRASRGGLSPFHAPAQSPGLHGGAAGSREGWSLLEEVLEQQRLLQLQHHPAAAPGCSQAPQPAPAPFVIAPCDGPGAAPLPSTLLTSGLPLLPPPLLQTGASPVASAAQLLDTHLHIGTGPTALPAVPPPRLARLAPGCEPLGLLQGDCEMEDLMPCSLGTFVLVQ
From the text: as §1

Sequence of 363 human kinases (including Aurora A/B/C) (Homo sapiens, UniProt P53667) (P53667 whole entry): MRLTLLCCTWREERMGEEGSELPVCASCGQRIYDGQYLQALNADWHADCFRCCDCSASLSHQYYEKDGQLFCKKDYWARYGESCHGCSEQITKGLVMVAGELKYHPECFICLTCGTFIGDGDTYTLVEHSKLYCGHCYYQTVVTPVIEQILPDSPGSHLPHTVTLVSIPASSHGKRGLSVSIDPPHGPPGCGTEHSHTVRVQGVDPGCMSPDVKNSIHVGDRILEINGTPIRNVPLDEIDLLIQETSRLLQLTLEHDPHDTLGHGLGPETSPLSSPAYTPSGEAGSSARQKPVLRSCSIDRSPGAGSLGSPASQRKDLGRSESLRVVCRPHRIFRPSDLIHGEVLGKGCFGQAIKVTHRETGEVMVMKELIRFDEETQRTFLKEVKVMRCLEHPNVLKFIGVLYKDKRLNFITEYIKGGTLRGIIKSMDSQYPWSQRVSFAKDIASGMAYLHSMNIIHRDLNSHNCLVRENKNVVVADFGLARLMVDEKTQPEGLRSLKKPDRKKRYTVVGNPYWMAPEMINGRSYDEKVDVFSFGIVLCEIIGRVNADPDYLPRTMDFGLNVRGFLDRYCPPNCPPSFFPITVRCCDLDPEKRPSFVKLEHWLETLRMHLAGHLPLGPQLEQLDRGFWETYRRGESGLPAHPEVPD
Sequence of 363 human kinases (including Aurora A/B/C) (Homo sapiens, UniProt Q8N4C8) (Q8N4C8 whole entry): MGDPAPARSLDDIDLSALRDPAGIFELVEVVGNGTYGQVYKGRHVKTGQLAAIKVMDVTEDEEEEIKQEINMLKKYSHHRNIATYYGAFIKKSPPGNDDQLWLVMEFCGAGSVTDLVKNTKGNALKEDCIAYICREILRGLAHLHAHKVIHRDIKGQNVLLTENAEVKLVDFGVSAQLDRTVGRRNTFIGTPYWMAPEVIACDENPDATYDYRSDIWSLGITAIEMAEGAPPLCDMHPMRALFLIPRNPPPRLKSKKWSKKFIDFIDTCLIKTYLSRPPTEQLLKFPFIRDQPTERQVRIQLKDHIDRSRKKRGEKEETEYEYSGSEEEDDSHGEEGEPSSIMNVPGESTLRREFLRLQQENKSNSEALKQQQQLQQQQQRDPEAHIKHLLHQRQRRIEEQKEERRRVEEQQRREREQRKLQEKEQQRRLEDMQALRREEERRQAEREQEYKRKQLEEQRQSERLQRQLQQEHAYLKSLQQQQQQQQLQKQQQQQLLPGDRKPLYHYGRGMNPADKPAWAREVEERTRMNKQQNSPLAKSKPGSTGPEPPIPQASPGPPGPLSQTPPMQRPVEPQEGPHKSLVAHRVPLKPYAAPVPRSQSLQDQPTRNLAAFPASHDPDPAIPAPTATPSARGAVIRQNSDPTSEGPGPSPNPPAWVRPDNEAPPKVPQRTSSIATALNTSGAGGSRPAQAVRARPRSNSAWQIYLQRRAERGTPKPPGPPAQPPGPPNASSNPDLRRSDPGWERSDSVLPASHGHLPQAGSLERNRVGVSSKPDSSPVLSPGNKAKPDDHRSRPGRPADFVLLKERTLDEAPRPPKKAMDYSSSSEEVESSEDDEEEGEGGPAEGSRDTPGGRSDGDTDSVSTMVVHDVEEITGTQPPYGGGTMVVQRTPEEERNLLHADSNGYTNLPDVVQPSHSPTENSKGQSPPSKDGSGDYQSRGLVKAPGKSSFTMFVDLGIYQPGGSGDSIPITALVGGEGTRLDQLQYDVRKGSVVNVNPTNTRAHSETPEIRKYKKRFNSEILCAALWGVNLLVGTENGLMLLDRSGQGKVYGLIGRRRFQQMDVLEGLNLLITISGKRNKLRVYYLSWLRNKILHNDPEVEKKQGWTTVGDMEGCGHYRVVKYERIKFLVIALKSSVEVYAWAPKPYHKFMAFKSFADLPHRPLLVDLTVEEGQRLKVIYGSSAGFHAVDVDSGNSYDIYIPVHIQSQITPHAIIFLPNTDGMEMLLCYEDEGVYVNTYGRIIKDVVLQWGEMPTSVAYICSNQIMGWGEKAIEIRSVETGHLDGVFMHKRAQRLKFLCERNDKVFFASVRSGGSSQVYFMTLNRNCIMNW
Sequence of 363 human kinases (including Aurora A/B/C) (Homo sapiens, UniProt P23443) (P23443 whole entry): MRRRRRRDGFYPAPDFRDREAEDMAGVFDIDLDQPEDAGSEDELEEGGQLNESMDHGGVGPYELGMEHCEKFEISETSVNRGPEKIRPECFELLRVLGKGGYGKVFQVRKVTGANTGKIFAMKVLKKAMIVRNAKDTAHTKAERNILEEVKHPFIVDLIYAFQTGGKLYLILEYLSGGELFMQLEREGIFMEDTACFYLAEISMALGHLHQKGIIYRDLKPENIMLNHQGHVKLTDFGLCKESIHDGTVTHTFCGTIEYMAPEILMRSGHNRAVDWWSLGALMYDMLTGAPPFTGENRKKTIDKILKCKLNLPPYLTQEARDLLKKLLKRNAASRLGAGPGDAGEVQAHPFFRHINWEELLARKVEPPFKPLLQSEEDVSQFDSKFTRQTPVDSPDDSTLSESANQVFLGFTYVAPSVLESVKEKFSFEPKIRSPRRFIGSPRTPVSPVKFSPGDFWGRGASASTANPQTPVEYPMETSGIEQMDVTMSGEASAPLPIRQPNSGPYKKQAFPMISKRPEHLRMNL
Sequence of 363 human kinases (including Aurora A/B/C) (Homo sapiens, UniProt P11362) (P11362 22-822): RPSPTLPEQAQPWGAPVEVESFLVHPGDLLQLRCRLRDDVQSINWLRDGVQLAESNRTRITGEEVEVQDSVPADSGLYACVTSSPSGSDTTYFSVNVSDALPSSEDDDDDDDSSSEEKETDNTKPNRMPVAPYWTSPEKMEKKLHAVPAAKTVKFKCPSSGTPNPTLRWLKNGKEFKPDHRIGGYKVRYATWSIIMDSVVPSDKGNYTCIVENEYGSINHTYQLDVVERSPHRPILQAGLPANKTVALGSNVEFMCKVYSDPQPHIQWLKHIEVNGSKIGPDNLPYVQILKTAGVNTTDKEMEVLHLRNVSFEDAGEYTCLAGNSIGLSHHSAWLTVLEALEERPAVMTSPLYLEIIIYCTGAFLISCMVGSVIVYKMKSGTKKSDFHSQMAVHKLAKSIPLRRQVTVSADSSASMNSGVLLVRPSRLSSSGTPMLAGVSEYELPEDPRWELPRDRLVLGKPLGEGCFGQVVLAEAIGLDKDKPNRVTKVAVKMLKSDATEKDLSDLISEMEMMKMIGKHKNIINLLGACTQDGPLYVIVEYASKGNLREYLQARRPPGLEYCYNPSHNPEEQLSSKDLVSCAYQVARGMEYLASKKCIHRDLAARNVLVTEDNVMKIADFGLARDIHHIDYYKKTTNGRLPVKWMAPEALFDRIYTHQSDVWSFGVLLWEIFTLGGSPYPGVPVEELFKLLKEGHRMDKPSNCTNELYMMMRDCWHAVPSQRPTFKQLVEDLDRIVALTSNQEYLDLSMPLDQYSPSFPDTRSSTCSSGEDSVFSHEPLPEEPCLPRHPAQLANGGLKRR

Consider `O=C(c1cccc(Cl)c1F)N1CCN(Cc2cccc(Nc3nccs3)n2)CC1` [MK-8745], for which the “% Enzyme Activity (relative to DMSO controls)” value turned out to be 93.82% in experiment [1] (FGFR1, [ATP] 5 µM, 500 nM); 80.85% in experiment [2] (500 nM); 99.31% in experiment [3] (500 nM); 99.25% in experiment [4] (500 nM); 104.15% in experiment [5] (500 nM); 99.18% in experiment [6] (500 nM). In addition, the entries for the “% Enzyme Activity (relative to DMSO controls)” value in experiment [7] (500 nM) and in experiment [8] (500 nM) were 82.81% and 93.78%, respectively. Moreover, the remaining activity at 0.5 µM in experiment [1] (FGFR1, [ATP] 5 µM, 500 nM) was 97.1%; in experiment [2] (500 nM), 81.8%; in experiment [3] (500 nM), 100%; in experiment [4] (500 nM) it was 101%; in experiment [5] (500 nM) it was 105%; in experiment [6] (500 nM), 101%. Moreover, the results for the remaining activity at 0.5 µM in experiment [7] (500 nM) and in experiment [8] (500 nM) were 86.8% and 95.7%, respectively.
With `CCn1cc(-c2ccnc3[nH]c(-c4cccc(CN(C)C)c4)cc23)c(-c2ccc(NC(=O)N(C)C)cc2)n1` [GSK1070916], the remaining activity at 0.1 µM is 60.2% in experiment [1]; 97.1% in experiment [2]; 101% in experiment [3]; 96.8% in experiment [4]; 98.7% in experiment [5]; 98.2% in experiment [6]. The values for the remaining activity at 0.1 µM in experiment [7] and in experiment [8] were 78.3% and 40.7%, respectively.
In the case of `O=C(O)[C@]1(Cc2cccc(Nc3nccs3)n2)CC[C@@H](Oc2cccc(Cl)c2F)CC1` [MK-5108], the remaining activity at 0.1 µM in experiment [1] (FGFR1, [ATP] 5 µM, 100 nM) came out at 61.8%; in experiment [2], 59.4%; in experiment [3], 98.3%; in experiment [4], 96.9%; in experiment [5] it was 103%; in experiment [6], 101%. The remaining activity at 0.1 µM in experiment [7] was found to be 80%; in experiment [8], 103%. Besides, the remaining activity at 0.5 µM came out at 30.8% in experiment [1] (FGFR1, [ATP] 5 µM, 500 nM); 32% in experiment [2] (500 nM); 97.7% in experiment [3] (500 nM); 69% in experiment [4] (500 nM); 148% in experiment [5] (500 nM); 101% in experiment [6] (500 nM). In addition, the remaining activity at 0.5 µM came to 53.4% in experiment [7] (500 nM) and 54.4% in experiment [8] (500 nM).

Values taken from publication PMC4685510, “A Cell Biologist’s Field Guide to Aurora Kinase Inhibitors” (Frontiers in Oncology, 2015).
